Measurements taken from patent US20220267365A1, “NOVEL PHOSPHATE ESTER COMPOUND HAVING PYRROLOPYRIMIDINE SKELETON OR PHARMACEUTICALLY ACCEPTABLE SALT THEREOF” (TAIHO PHARMACEUTICAL CO., LTD., priority 2019, published 2022).
pIC50: −log10 of the molar value.

What was measured:
Format in all cases: cell-based
[1] = system: H2122; assay: Test Example 4 growth suppression activity, CellTiter-Glo; settings: NCI-H2122, 72 h; H2122, Human lung cancer, 3 days
Method: (§1) Human tumor cell lines different in type were suspended in mediums, seeded in individual wells of a multi-well plate and cultured. On the day after initiation of culture, serially diluted solutions of a compound were added. Culture was carried out for further 3 days. Cells were counted by a CellTiter-Glo (manufactured by Promega KK) in accordance with the protocol recommended by Promega KK. Cell viability was calculated in accordance with the equation shown below and the concentration (IC50 (nM)) of the compound at which 50% of cell growth is inhibited was obtained.
(§2) Cell viability (%)=(T/C)×100
(§3) T: Intensity of light emitted from a well containing a compound
(§4) C: Intensity of light emitted from a well containing no compound

[2] = system: A549; assay: as above; settings: 72 h; A549, Human lung cancer, 3 days
Method: as §1, §2, §3, §4

[3] = system: SK-BR-3; assay: as above; settings: 72 h; SK-BR-3, Human breast cancer, 3 days
Method: as §1, §2, §3, §4

[4] = system: HCC827; assay: as above; settings: 72 h; HCC827, Human lung cancer, 3 days
Method: as §1, §2, §3, §4

[5] = system: H1650; assay: as above; settings: NCI-H1650, 72 h; H1650, Human lung cancer, 3 days
Method: as §1, §2, §3, §4

[6] = system: A431; assay: as above; settings: A-431, 72 h; A431, Human epidermoid carcinoma, 3 days
Method: as §1, §2, §3, §4

[7] = system: H358; assay: as above; settings: NCI-H358, 72 h; H358, Human lung cancer, 3 days
Method: as §1, §2, §3, §4

[8] = system: human brain tumor cell line (U-87 MG); assay: Test Example 9: combinational effect of compound and temozolomide (TMZ), crystal violet cell viability; settings: any order (same-day, compound first, TMZ first), Student's t-test
Method: A human brain tumor cell line (U-87 MG) was suspended in a medium, seeded in individual wells of a multi-well plate and cultured. In the case where two compounds are simultaneously added, both compounds were added on two days after initiation of culture. In the case where addition of the compound of the present invention preceded, a serially diluted solution of the compound was added on the day after initiation of culture and a serially diluted solution of TMZ was added two days after initiation of culture. In the case where addition of TMZ preceded, a serially diluted solution of TMZ was added on the day after initiation of culture and a serially diluted solution of the compound was added on two days after initiation of culture. Day 5 after seeding, cells were fixed with a 25% aqueous solution of glutaraldehyde and stained with a staining fluid (0.05 w/v % crystal violet in 20% methanol). After an extract (0.1 N NaH2PO4:100% ethanol=1:1) was added and stirred, an absorbance at 540 nm was measured to obtain a cell count. The cell viability was calculated in accordance with the following equation and statistically processed in accordance with a Student's t-test.
as §2
T: Absorbance of a well containing TMZ or a compound
C: Absorbance of a well containing neither TMZ nor a compound

[9] = system: human brain tumor cell line (U-87 MG); assay: Test Example 8: combination use of compound and radiation, crystal violet cell viability; settings: any order (same-day, compound first, radiation first), Student's t-test
Method: A human brain tumor cell line (U-87 MG) was suspended in a medium, seeded in individual wells of a multi-well plate and cultured. In the case where radiation exposure and addition of a compound are simultaneously carried out, both treatments were carried out on two days after initiation of culture. In the case where addition of a compound preceded radiation exposure, a serially diluted solution of a compound was added on the day after initiation of culture and radiation exposure was carried out on two days after initiation of culture. In the case where radiation exposure preceded addition of a compound, radiation exposure was carried out on the day after initiation of culture and a serially diluted solution of a compound was added on the two days after initiation of culture. Day 5 after seeding, cells were fixed with a 25% aqueous solution of glutaraldehyde and stained with a staining fluid (0.05 w/v % crystal violet in 20% methanol). After an extract (0.1 N NaH2PO4: 100% ethanol=1:1) was added and stirred, an absorbance at 540 nm was measured to obtain a cell count. The cell viability was calculated in accordance with the following equation and statistically processed in accordance with a Student's t-test.
as §2
T: Absorbance of a well exposed to radiation or containing a compound
C: Absorbance of a well neither exposed to radiation nor containing a compound

Compound `Nc1ncnc2c1c(I)cn2[C@@H]1O[C@H](CO)[C@@H](O)[C@@H]1F` [Comparative Example 2, (2R,3R,4S,5R)-5-(4-amino-5-iodo-7H-pyrrolo[2,3-d]pyrimidin-7-yl)-4-fluoro-2-(hydroxymethyl) tetrahydrofuran-3-ol] has a pIC50 [1] of 8.05, a pIC50 [2] of 7.85 and a pIC50 [3] of 7.64. It also gave a pIC50 [4] of 6.75, a pIC50 [5] of 8.10 and a pIC50 [6] of 7.74. For the same compound, the pIC50 [7] was 7.28, the “cell viability, combination treatment with TMZ compared to the single treatments” value [8] was “significant decrease” and the “cell viability, combination treatment with radiation exposure compared to the single treatments” value [9] was “significantly decreased”.
